# Experimental data taken from patent US20260132140A1, “IMIDAZOLYL-AMINO-PYRAZINE-CARBONITRILS AS CHK-1 INHIBITORS” (BenevolentAI Bio Limited, priority 2022, published 2026).
# Key:
# human Chk1 kinase = target: T1, human Chk1 kinase (Homo sapiens, UniProt O14757); test: biochemical
# T1 sequence (O14757 1-476): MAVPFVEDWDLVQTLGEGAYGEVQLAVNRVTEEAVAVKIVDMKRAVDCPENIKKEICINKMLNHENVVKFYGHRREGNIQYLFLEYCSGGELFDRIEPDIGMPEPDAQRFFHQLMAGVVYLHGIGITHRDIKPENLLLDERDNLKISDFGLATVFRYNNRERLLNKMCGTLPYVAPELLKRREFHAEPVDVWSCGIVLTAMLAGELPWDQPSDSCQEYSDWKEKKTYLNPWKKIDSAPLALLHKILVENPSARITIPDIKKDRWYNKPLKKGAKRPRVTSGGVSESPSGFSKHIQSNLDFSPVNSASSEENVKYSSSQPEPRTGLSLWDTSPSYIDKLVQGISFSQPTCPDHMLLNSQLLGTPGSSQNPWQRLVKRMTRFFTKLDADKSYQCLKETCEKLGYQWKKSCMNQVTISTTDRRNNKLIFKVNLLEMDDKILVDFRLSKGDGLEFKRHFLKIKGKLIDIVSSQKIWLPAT
# human Chk2 kinase = human Chk2 kinase (Homo sapiens, UniProt O96017); test: biochemical
# Sequence of human Chk2 kinase (O96017 whole entry): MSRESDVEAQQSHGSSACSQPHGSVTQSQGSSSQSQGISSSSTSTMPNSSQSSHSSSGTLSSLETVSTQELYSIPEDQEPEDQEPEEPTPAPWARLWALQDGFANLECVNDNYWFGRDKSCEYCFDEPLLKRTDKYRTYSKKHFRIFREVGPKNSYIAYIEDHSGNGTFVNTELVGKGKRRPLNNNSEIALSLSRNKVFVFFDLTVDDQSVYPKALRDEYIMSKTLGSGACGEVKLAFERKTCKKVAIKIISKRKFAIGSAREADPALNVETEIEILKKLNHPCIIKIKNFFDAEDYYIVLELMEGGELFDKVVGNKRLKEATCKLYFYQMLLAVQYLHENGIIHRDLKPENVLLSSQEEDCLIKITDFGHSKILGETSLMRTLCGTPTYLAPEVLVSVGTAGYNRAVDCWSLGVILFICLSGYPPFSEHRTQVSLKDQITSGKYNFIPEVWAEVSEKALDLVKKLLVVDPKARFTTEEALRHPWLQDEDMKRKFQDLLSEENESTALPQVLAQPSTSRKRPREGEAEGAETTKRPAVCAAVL
Structure (SMILES),IC50 (human Chk1 kinase),IC50 (human Chk2 kinase)
"Cc1cc(-n2cnc(Nc3cnc(C#N)cn3)c2)ccc1N1CCN(C)CC1 [Example 28, 5-((1-(3-Methyl-4-(4-methylpiperazin-1-yl)phenyl)-1H-imidazol-4-yl)amino)pyrazine-2-carbonitrile]",10 to 31.6 nM,10000 to 100000 nM
"COc1cc(N2C[C@H]3C[C@@H]2CN3C)ccc1-n1cnc(Nc2cnc(C#N)cn2)c1 [Example 44, 5-((1-(2-Methoxy-4-((1R,4R)-5-methyl-2,5-diazabicyclo[2.2.1]heptan-2-yl)phenyl)-1H-imidazol-4-yl)amino)pyrazine-2-carbonitrile]",10 to 31.6 nM,10000 to 100000 nM
"Cc1cc(-n2cnc(Nc3cnc(C#N)cn3)c2)ccc1N1CC[C@@H](N2CCC2)C1 [Example 104, (R)-5-((1-(4-(3-(Azetidin-1-yl)pyrrolidin-1-yl)-3-methylphenyl)-1H-imidazol-4-yl)amino)pyrazine-2-carbonitrile]",10 to 31.6 nM,10000 to 100000 nM
"CN1CCCN(c2cccc(-n3cnc(Nc4cnc(C#N)cn4)c3)c2)CC1 [Example 33, 5-((1-(3-(4-Methyl-1,4-diazepan-1-yl)phenyl)-1H-imidazol-4-yl)amino)pyrazine-2-carbonitrile]",31.6 to 100 nM,10000 to 100000 nM
"CN1C[C@H]2CN(c3ccc(-n4cnc(Nc5cnc(C#N)cn5)c4)c(F)c3)[C@H]2C1 [Example 81, 5-((1-(2-Fluoro-4-((1S,5R)-3-methyl-3,6-diazabicyclo[3.2.0]heptan-6-yl)phenyl)-1H-imidazol-4-yl)amino)pyrazine-2-carbonitrile]",31.6 to 100 nM,1000 to 10000 nM
"COc1cc(CN2CCCC2)ccc1-n1cnc(Nc2cnc(C#N)cn2)c1 [Example 171, 5-((1-(2-Methoxy-4-(pyrrolidin-1-ylmethyl)phenyl)-1H-imidazol-4-yl)amino)pyrazine-2-carbonitrile]",10 to 31.6 nM,10000 to 100000 nM
"CN1CCN(c2ccc(-n3cnc(Nc4cnc(C#N)cn4)c3)nc2)CC1 [Example 18, 5-((1-(5-(4-Methylpiperazin-1-yl)pyridin-2-yl)-1H-imidazol-4-yl)amino)pyrazine-2-carbonitrile]",10 to 31.6 nM,1000 to 10000 nM
"CN1CCCC12CN(c1cccc(-n3cnc(Nc4cnc(C#N)cn4)c3)c1)C2 [Example 34, 5-((1-(3-(5-Methyl-2,5-diazaspiro[3.4]octan-2-yl)phenyl)-1H-imidazol-4-yl)amino)pyrazine-2-carbonitrile]",10 to 31.6 nM,10000 to 100000 nM
"CCCN1CC(Oc2cccc(-n3cnc(Nc4cnc(C#N)cn4)c3)c2)C1 [Example 48, 5-((1-(3-((1-Propylazetidin-3-yl)oxy)phenyl)-1H-imidazol-4-yl)amino)pyrazine-2-carbonitrile]",31.6 to 100 nM,> 100000 nM
"CN(C)C[C@@H]1CCCN1c1ccc(-n2cnc(Nc3cnc(C#N)cn3)c2)cc1 [Example 66, (S)-5-((1-(4-(2-((Dimethylamino)methyl)pyrrolidin-1-yl)phenyl)-1H-imidazol-4-yl)amino)pyrazine-2-carbonitrile]",31.6 to 100 nM,10000 to 100000 nM
"CN1CC2(C1)CN(c1ccc(-n3cnc(Nc4cnc(C#N)cn4)c3)cc1)C2 [Example 11, 5-((1-(4-(6-Methyl-2,6-diazaspiro[3.3]heptan-2-yl)phenyl)-1H-imidazol-4-yl)amino)pyrazine-2-carbonitrile]",10 to 31.6 nM,
"Cc1cc(N2CCN(C)CC2)ccc1-n1cnc(Nc2cnc(C#N)cn2)c1 [Example 145, 5-((1-(2-methyl-4-(4-Methylpiperazin-1-yl)phenyl)-1H-imidazol-4-yl)amino)pyrazine-2-carbonitrile]",316 to 1000 nM,
"CN[C@H]1CN(c2ccc(-n3cnc(Nc4cnc(C#N)cn4)c3)cc2)C[C@H]1OC [Example 163, 5-((1-(4-((3R,4S)-3-Methoxy-4-(methylamino)pyrrolidin-1-yl)phenyl)-1H-imidazol-4-yl)amino)pyrazine-2-carbonitrile]",10 to 31.6 nM,
"N#Cc1cnc(Nc2cn(-c3ccc(N4CC[C@@H](N5CCCC5)C4)cc3)cn2)cn1 [Example 147, (R)-5-((1-(4-([1,3′-Bipyrrolidin]-1′-yl)phenyl)-1H-imidazol-4-yl)amino)pyrazine-2-carbonitrile]",10 to 31.6 nM,
"CN(C)[C@H]1CCN(c2ccc(-n3cnc(Nc4cnc(C#N)cn4)c3)cc2)C1 [Example 15, (S)-5-((1-(4-(3-(Dimethylamino)pyrrolidin-1-yl)phenyl)-1H-imidazol-4-yl)amino)pyrazine-2-carbonitrile]",31.6 to 100 nM,

# Next, values leading:
IC50 (human Chk1 kinase),IC50 (human Chk2 kinase),Structure (SMILES)
< 10 nM,1000 to 10000 nM,"CCN[C@@H]1CCN(c2ccc(-n3cnc(Nc4cnc(C#N)cn4)c3)cc2)C1 [Example 162, (R)-5-((1-(4-(3-(Ethylamino)pyrrolidin-1-yl)phenyl)-1H-imidazol-4-yl)amino)pyrazine-2-carbonitrile]"
< 10 nM,> 100000 nM,"CN(C)C1CN(c2ccc(-n3cnc(Nc4cnc(C#N)cn4)c3)cc2)C1 [Example 32, 5-((1-(4-(3-(Dimethylamino)azetidin-1-yl)phenyl)-1H-imidazol-4-yl)amino)pyrazine-2-carbonitrile]"
31.6 to 100 nM,> 100000 nM,"CC1(C)CCN1C1CCN(c2ccc(-n3cnc(Nc4cnc(C#N)cn4)c3)cc2)C1 (single isomer, unassigned) [Example 139, 5-((1-(4-(3-(2,2-Dimethylazetidin-1-yl)pyrrolidin-1-yl)phenyl)-1H-imidazol-4-yl)amino)pyrazine-2-carbonitrile]"
31.6 to 100 nM,,"CN(C)CC1CCN(c2ccc(-n3cnc(Nc4cnc(C#N)cn4)c3)cc2)C1 (single isomer, unassigned) [Example 115, 5-((1-(4-(3-((Dimethylamino)methyl)pyrrolidin-1-yl)phenyl)-1H-imidazol-4-yl)amino)pyrazine-2-carbonitrile]"
10 to 31.6 nM,> 100000 nM,"N#Cc1cnc(Nc2cn(-c3ccc(N4CCN5CCCC5C4)cc3)cn2)cn1 (single isomer, unassigned) [Example 117, 5-((1-(4-(Hexahydropyrrolo[1,2-a]pyrazin-2(1H)-yl)phenyl)-1H-imidazol-4-yl)amino)pyrazine-2-carbonitrile]"
31.6 to 100 nM,10000 to 100000 nM,"N#Cc1cnc(Nc2cn(-c3ccc(N4CCN(C5COC5)CC4)cc3)cn2)cn1 [Example 182, 5-((1-(4-(4-(Oxetan-3-yl)piperazin-1-yl)phenyl)-1H-imidazol-4-yl)amino)pyrazine-2-carbonitrile]"
10 to 31.6 nM,10000 to 100000 nM,"C[C@@H]1CCN1C1CCN(c2ccc(-n3cnc(Nc4cnc(C#N)cn4)c3)cc2)C1 (single isomer, unassigned) [Example 135]"
10 to 31.6 nM,1000 to 10000 nM,"N#Cc1cnc(Nc2cn(-c3ccc(N4CC[C@@H](N5CCC5)C4)cn3)cn2)cn1 [Example 102, (R)-5-((1-(5-(3-(Azetidin-1-yl)pyrrolidin-1-yl)pyridin-2-yl)-1H-imidazol-4-yl)amino)pyrazine-2-carbonitrile]"
31.6 to 100 nM,10000 to 100000 nM,"CN1CC[C@H](N(C)c2ccc(-n3cnc(Nc4cnc(C#N)cn4)c3)cc2)C1 [Example 95, (S)-5-((1-(4-(Methyl(1-methylpyrrolidin-3-yl)amino)phenyl)-1H-imidazol-4-yl)amino)pyrazine-2-carbonitrile]"
< 10 nM,1000 to 10000 nM,"CCN1CCN(c2ccc(-n3cnc(Nc4cnc(C#N)cn4)c3)c(OC)c2)CC1 [Example 27, 5-((1-(4-(4-Ethylpiperazin-1-yl)-2-methoxyphenyl)-1H-imidazol-4-yl)amino)pyrazine-2-carbonitrile]"
10 to 31.6 nM,10000 to 100000 nM,"CN1C[C@H]2C[C@@H]1CN2c1ccc(-n2cnc(Nc3cnc(C#N)cn3)c2)cc1 [Example 9, 5-((1-(4-((1R,4R)-5-Methyl-2,5-diazabicyclo[2.2.1]heptan-2-yl)phenyl)-1H-imidazol-4-yl)amino)pyrazine-2-carbonitrile]"
100 to 316 nM,10000 to 100000 nM,"CN1CCN(c2ccc(-n3cnc(Nc4cnc(C#N)cn4)c3)cn2)CC1 [Example 19, 5-((1-(6-(4-Methylpiperazin-1-yl)pyridin-3-yl)-1H-imidazol-4-yl)amino)pyrazine-2-carbonitrile]"
31.6 to 100 nM,10000 to 100000 nM,"CN(C)C1CCCN(c2cccc(-n3cnc(Nc4cnc(C#N)cn4)c3)c2)C1 (single isomer, unassigned) [Example 111, 5-((1-(3-(3-(Dimethylamino)piperidin-1-yl)phenyl)-1H-imidazol-4-yl)amino)pyrazine-2-carbonitrile]"
10 to 31.6 nM,1000 to 10000 nM,"CCN[C@H]1CN(c2ccc(-n3cnc(Nc4cnc(C#N)cn4)c3)cc2)C[C@H]1F [Example 88, 5-((1-(4-((3S,4R)-3-(Ethylamino)-4-fluoropyrrolidin-1-yl)phenyl)-1H-imidazol-4-yl)amino)pyrazine-2-carbonitrile]"
10 to 31.6 nM,,"CCN1CCN(c2ccc(-n3cnc(Nc4cnc(C#N)cn4)c3)cc2)CC1 [Example 185, 5-((1-(4-(4-Ethylpiperazin-1-yl)phenyl)-1H-imidazol-4-yl)amino)pyrazine-2-carbonitrile]"
100 to 316 nM,,"CN1CCN(C(=O)c2ccc(-n3cnc(Nc4cnc(C#N)cn4)c3)cc2)CC1 [Example 144, 5-((1-(4-(4-Methylpiperazine-1-carbonyl)phenyl)-1H-imidazol-4-yl)amino)pyrazine-2-carbonitrile]"
